Laboratory results taken from US20240252519A1, “METHODS FOR THE TREATMENT OF POST-TRAUMATIC STRESS DISORDER AND TRAUMATIC BRAIN INJURY WITH CANNABINOIDS” (ANANDA SCIENTIFIC, INC., priority 2021, published 2024).

Columns and labels:
[1] = Chemical characteristics of composition A′, concentrated and diluted forms; type: physicochemical
Procedure: Several tests were conducted to determine the chemical characteristics of composition A′, both in concentrated and diluted forms. […] All liquid nanodomain droplets range in size from 5 to 20 nm. The pH of both the concentrate and diluted formulations is between 6.0 and 7.5.

[2] = rats, cited from earlier work
[3] = doses ranging from 10 mg to 6000 mg, single and multiple doses; cited from earlier work
CB2 receptors = CB2 receptors (Homo sapiens, UniProt P34972); settings: cited from earlier work
Sequence of CB2 receptors (P34972 whole entry): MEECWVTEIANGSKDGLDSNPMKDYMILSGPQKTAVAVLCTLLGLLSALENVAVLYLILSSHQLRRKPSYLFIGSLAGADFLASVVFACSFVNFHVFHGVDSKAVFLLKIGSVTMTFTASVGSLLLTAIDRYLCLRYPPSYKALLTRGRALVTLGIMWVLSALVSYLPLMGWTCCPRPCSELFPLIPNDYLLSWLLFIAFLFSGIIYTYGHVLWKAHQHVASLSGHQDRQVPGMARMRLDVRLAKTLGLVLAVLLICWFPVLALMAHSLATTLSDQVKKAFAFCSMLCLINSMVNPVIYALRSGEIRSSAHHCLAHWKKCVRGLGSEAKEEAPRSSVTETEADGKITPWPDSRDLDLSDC

Q: Which results are given for `C=C(C)[C@@H]1CCC(C)=C[C@H]1c1c(O)cc(CCCCC)cc1O` [CBD, 2-(1R,6R)-3-methyl-6-prop-1-en-2-ylcyclohex-2-en-1-yl-5-pentylbenzene-1,3-diol]?
A: logP [1]: ~6; T1/2 ([2]; 120 mg/kg dose, oral): 4 to 5 h; Bioavailability of CBD delivered orally ([2]; single 10 mg/kg): 2.8%; Safety [3]: safe; Affinity for CB2 receptors (CB2 receptors): low affinity
